Experiment: HILIC, Waters ACQUITY UPLC BEH Amide, 100 × 2.1 mm, 1.7 µm; A: water + 0.125% formic acid + 10 mM ammonium formate; B: 5% water + 95% acetonitrile + 0.125% formic acid + 10 mM ammonium formate; gradient (min/%B) 0/100 2/100 7.7/70 9.5/40 10.25/30 12.75/100 17/100
Conditions: stereoisomer not certain

Row | SMILES | LC retention time
1 | CN1C(=O)CC(=O)N(c2ccccc2)c2cc(Cl)ccc21 [Clobazam] | 1.1 min
2 | CC(c1ncncc1F)C(O)(Cn1cncn1)c1ccc(F)cc1F (stereo not given) [Voriconazole] | 1.02 min
3 | CCOC(=O)C(C)Oc1ccc(Oc2nc3ccc(Cl)cc3o2)cc1 (stereo not given) [Fenoxaprop-P-ethyl] | 1.01 min
4 | CCOC(=O)OC(C)OC1=C(C(=O)Nc2ccccn2)N(C)S(=O)(=O)c2ccccc21 (stereo not given) [Ampiroxicam] | 0.95 min
5 | COc1ccc(C(CN(C)C)C2(O)CCCCC2)cc1 (stereo not given) [Venlafaxine] | 2.44 min
6 | O=C(CO)c1ccccc1 [2-Hydroxyacetophenone] | 4.36 min
7 | CC1(C)CC1C(=O)NC(=CCCCCSCC(N)C(=O)O)C(=O)O (stereo not given) [Cilastatin] | 7.63 min
8 | CC[N+](C)(CC)CCOC(=O)C(O)(c1ccccc1)C1CCCCC1 (stereo not given) [Oxyphenonium] | 2.01 min
9 | N#CCc1c[nH]c2ccccc12 [3-Indoleacetonitrile] | 8.02 min
10 | O=C1c2cccc3c2C(CCC3)CN1C1CN2CCC1CC2 (stereo not given) [Palonosetron] | 4.05 min
11 | O=C(O)C(=O)Cc1c[nH]c2ccccc12 [Indole-3-pyruvic acid] | 5.11 min
12 | O=c1cc(-c2ccc(O)cc2)oc2c(C3OC(CO)C(O)C(O)C3O)c(O)cc(O)c12 (stereo not given) [Vitexin] | 5.33 min
13 | CC12CCC3C(CCC4CC(O)CCC43C)C1CCC2=O (stereo not given) [Androsterone] | 4.62 min
14 | Cc1ccc(O)c(C(CCN(C(C)C)C(C)C)c2ccccc2)c1 (stereo not given) [Tolterodine] | 2.13 min
15 | c1ccc2c(c1)Cc1ccccc1-2 [Fluorene] | 6.66 min
16 | CN(C)CCN(Cc1ccccc1)c1ccccn1 [Tripelennamine] | 1.98 min
17 | CCCCCCCC=O [Octanal] | 6.98 min
18 | OCCN1CCN(CCCN2c3ccccc3Sc3ccc(C(F)(F)F)cc32)CC1 [Fluphenazine] | 2.74 min
19 | NC(CCO)C(=O)O (stereo not given) [Homoserine] | 8.29 min
20 | C[N+](C)(C)CCOP(=O)([O-])OCC(O)CO (stereo not given) [Glycerophosphocholine] | 8.67 min

Row | SMILES | LC retention time
21 | NCCc1ccc(O)cc1 [Tyramine] | 5.58 min
22 | NC(C(=O)NC1C(=O)N2C(C(=O)O)=C(CSc3cn[nH]n3)CSC12)c1ccc(O)cc1 (stereo not given) [Cefatrizine] | 7.98 min
23 | CC(C)CC(NC(=O)C(COC(C)(C)C)NC(=O)C(Cc1ccc(O)cc1)NC(=O)C(CO)NC(=O)C(Cc1c[nH]c2ccccc12)NC(=O)C(Cc1cnc[nH]1)NC(=O)C1CCC(=O)N1)C(=O)NC(CCCN=C(N)N)C(=O)N1CCCC1C(=O)NNC(N)=O (stereo not given) [Goserelin] | 7.83 min
24 | C=C(OP(=O)(O)O)C(=O)O [Phosphoenolpyruvic acid] | 9.05 min
25 | OCC1OC(n2cnc3c(NC4CCCC4O)ncnc32)C(O)C1O (stereo not given) [N-2-Hydroxycyclopentyladenosine] | 3.48 min
26 | O=C(O)CC1C(=O)Nc2ccccc21 (stereo not given) [(2-oxo-2,3-dihydro-1H-indol-3-yl)acetic acid] | 2.02 min
27 | NC(=O)Cc1c[nH]c2ccccc12 [Indole-3-acetamide] | 1.36 min
28 | O=CCc1ccccc1 [Phenylacetaldehyde] | 5.4 min
29 | O=c1ccn(C2CCC(CO)O2)c(=O)[nH]1 (stereo not given) [2,3-Dideoxyuridine] | 1.73 min
30 | COCc1c(C(C)C)nc(C(C)C)c(C=CC(O)CC(O)CC(=O)O)c1-c1ccc(F)cc1 (stereo not given) [Cerivastatin] | 1.18 min
31 | CC(C)CC(NC(=O)OCc1ccccc1)C(=O)O (stereo not given) [N-Carbobenzyloxyleucine] | 1.28 min
32 | CCc1c2c(nc3ccc(OC(=O)N4CCC(N5CCCCC5)CC4)cc13)-c1cc3c(c(=O)n1C2)COC(=O)C3(O)CC (stereo not given) [Irinotecan] | 5.03 min
33 | C#CC1(O)CCC2C3C(C)CC4=C(CCC(=O)C4)C3CCC21C (stereo not given) [Tibolone] | 1 min
34 | CCN(CC)CC(=O)Nc1c(C)cccc1C [Lidocaine] | 1.97 min
35 | CCCCCCCCCC=O [Decanal] | 2.17 min
36 | Nc1nc2c(ncn2C2CC(OP(=O)(O)O)C(CO)O2)c(=O)[nH]1 (stereo not given) [2'-Deoxyguanosine 3'-monophosphate] | 9.43 min
37 | CCCCCCCCCCCCCCCCC(=O)O [Heptadecanoic acid] | 3.01 min
38 | O=c1ccn(C2OC(CO)C(O)C2O)c(=O)[nH]1 (stereo not given) [Uridine] | 4.72 min
39 | COc1ccc2c3c1OC1C(=O)CCC4C(C2)N(C)CCC314 (stereo not given) [Hydrocodone] | 3.8 min
40 | COc1ccc2[nH]cc(CCN)c2c1 [5-Methoxytryptamine] | 4.99 min

Row | SMILES | LC retention time
41 | O=C(CCNNC(=O)c1ccncc1)NCc1ccccc1 [Nialamide] | 1.69 min
42 | Nc1ccn(C2CC(O)C(COP(=O)(O)O)O2)c(=O)n1 (stereo not given) [2-Deoxycytidine-5-monophosphoric acid] | 9.16 min
43 | CC=C1C2C=C(C)CC1(N)c1ccc(=O)[nH]c1C2 (stereo not given) [Huperzine] | 5.74 min
44 | CSCCC(NC=O)C(=O)O (stereo not given) [N-Formylmethionine] | 3.93 min
45 | CN1C(=O)C(O)N=C(c2ccccc2)c2cc(Cl)ccc21 (stereo not given) [Temazepam] | 1.15 min
46 | CC1=NS(=O)(=O)c2cc(Cl)ccc2N1 [Diazoxide] | 1.09 min
47 | COc1cccc(C2(O)CCCCC2CN(C)C)c1 (stereo not given) [Tramadol] | 2.52 min
48 | O=C(O)Cc1cccc(O)c1 [3-Hydroxyphenylacetic acid] | 1.45 min
49 | CC(NC(=O)C(N)C(C)O)C(=O)O (stereo not given) [Thr-Ala] | 8.56 min
50 | CN(C)C(=N)N=C(N)N [Metformin] | 5.44 min
51 | CCC(C)C(=O)OC1CCC=C2C=CC(C)C(CCC3CC(O)CC(=O)O3)C21 (stereo not given) [Mevastatin] | 0.99 min
52 | CC(N)Cc1ccccc1 (stereo not given) [Amphetamine] | 4.6 min
53 | Cc1cc(O)cc(=O)o1 [4-Hydroxy-6-methyl-2-pyrone] | 1.47 min
54 | NC(CCCC(N)C(=O)O)C(=O)O (stereo not given) [2,6-Diaminopimelic acid] | 9.88 min
55 | CN1C(=O)CN=C(c2ccccc2)c2cc([N+](=O)[O-])ccc21 [Nimetazepam] | 0.98 min
56 | Nc1ccn(C2OC(CO)C(O)C2O)c(=S)n1 (stereo not given) [2-Thiocytidine] | 5.33 min
57 | COc1ccc(-c2coc3cc(O)ccc3c2=O)cc1 [Formononetine] | 1.18 min
58 | COc1ccccc1OCC(O)CN1CCN(CC(=O)Nc2c(C)cccc2C)CC1 (stereo not given) [Ranolazine] | 2.79 min

More lines, now with the values ahead:

Row | LC retention time | SMILES
59 | 1.15 min | CC(C)c1nc(CN(C)C(=O)NC(C(=O)NC(Cc2ccccc2)CC(O)C(Cc2ccccc2)NC(=O)OCc2cncs2)C(C)C)cs1 (stereo not given) [Ritonavir]
60 | 2.26 min | CC(=O)NCCCC(=O)O [4-Acetamidobutyric acid]
61 | 5.18 min | CCCCCCCCCCCCCCC(O)C(O)C(N)CO (stereo not given) [Phytosphingosine]
62 | 7.85 min | NCCS(=O)(=O)O [Taurine]
63 | 9.9 min | NCCCCC(NC(=O)C(N)CCC(=O)O)C(=O)O (stereo not given) [Glu-Lys]
64 | 7.44 min | NC(Cc1cccc(O)c1)C(=O)O (stereo not given) [3-Hydroxyphenylalanine]
65 | 8.35 min | CC(=O)NCCC(=O)NC(Cc1cnc[nH]1)C(=O)O [N-Acetyl-L-carnosine]
66 | 7.67 min | CC(=O)NC(CO)C(=O)O (stereo not given) [N-Acetylserine]
67 | 5.34 min | CN1CCCC1c1cccnc1 (stereo not given) [Nicotine]
68 | 1.49 min | CN1C(=O)CCC1c1cccnc1 (stereo not given) [Cotinine]
69 | 6.38 min | Cn1cc(CC(N)C(=O)O)c2ccccc21 (stereo not given) [1-Methyltryptophan]
70 | 1.41 min | Oc1ccc(C=Cc2cc(O)cc(O)c2)cc1 [Resveratrol]
71 | 1.7 min | COc1ccc(CN2CCN(C(c3ccc(F)cc3)c3ccc(F)cc3)CC2)c(OC)c1OC [Lomerizine]
72 | 7.33 min | Nc1nc2c(ncn2C2OC(CO)C(O)C2O)c(=O)[nH]1 (stereo not given) [Guanosine]
73 | 9.85 min | NC(N)=NCCCC(N)C(=O)NCC(=O)O (stereo not given) [Arg-Gly]
74 | 7.32 min | CC(C)CC(N)C(=O)N1CCCC1C(=O)O (stereo not given) [Leu-Pro]

Row | LC retention time | SMILES
75 | 1.01 min | O=c1c(-c2ccccc2)c1-c1ccccc1 [Diphenylcyclopropenone]
76 | 2.55 min | O=C(O)CCCCCCC(O)CC(=O)O (stereo not given) [3-Hydroxysebacic acid]
77 | 8.14 min | CC(C)CC(NC(=O)CN)C(=O)O (stereo not given) [Glycyl-leucine]
78 | 1.36 min | O=C(O)CC(O)CC(O)C=Cc1c(C2CC2)nc2ccccc2c1-c1ccc(F)cc1 (stereo not given) [Pitavastatin]
79 | 1.11 min | O=C(O)CCc1nc(-c2ccccc2)c(-c2ccccc2)o1 [Oxaprozin]
80 | 4.41 min | CN(C)CCC=C1c2ccccc2COc2ccc(CC(=O)O)cc21 [Olopatadine]
81 | 3.78 min | Cc1ncc(CO)c(CO)c1O [Pyridoxine]
82 | 6 min | CC(=O)NCCc1cnc[nH]1 [N-omega-Acetylhistamine]
83 | 7.08 min | CC(C)CC(N)C(=O)O (stereo not given) [Leucine]
84 | 7.8 min | NC(=O)NC(CCC(=O)O)C(=O)O (stereo not given) [Ureidoglutaric acid]
85 | 8.12 min | OCCN1CC(O)C(O)C(O)C1CO (stereo not given) [Miglitol]
86 | 4.32 min | COc1cc(-c2oc3cc(O)cc(O)c3c(=O)c2OC2OC(CO)C(O)C(O)C2O)cc(OC)c1O (stereo not given) [Syringetin-3-O-glucoside]
87 | 7.62 min | CC(O)CC(=O)OC(CC(=O)[O-])C[N+](C)(C)C (stereo not given) [3-Hydroxybutyrylcarnitine]
88 | 1.16 min | Cc1ccnc2c1NC(=O)c1cccnc1N2C1CC1 [Viramune]
89 | 2.17 min | CC(C)(C)NC(=O)C1CN(Cc2cccnc2)CCN1CC(O)CC(Cc1ccccc1)C(=O)NC1c2ccccc2CC1O (stereo not given) [Indinavir]
90 | 1.29 min | CC12CCC(=O)C=C1CCC1C2C(=O)CC2(C)C1CCC2(O)C(=O)CO (stereo not given) [Cortisone]

Reference: the RepoRT retention time repository
